Data: US12377119B2, “Natural killer cells” (IMPERIAL COLLEGE INNOVATIONS LIMITED, priority 2018, dated 2025)
“Also recorded” adds a separate entry of the source.

Assays:
[1] = molecular target: T1, REV-ERBα (Homo sapiens, UniProt P20393); test: Dual-luciferase Bmal-luc reporter assay in HEK293T cells transfected with REV-ERBα; format: cell-based; details: 10 μM
T1 construct: expressed in transfected cells; host or cells: HEK293T
T1 sequence (P20393 1-614): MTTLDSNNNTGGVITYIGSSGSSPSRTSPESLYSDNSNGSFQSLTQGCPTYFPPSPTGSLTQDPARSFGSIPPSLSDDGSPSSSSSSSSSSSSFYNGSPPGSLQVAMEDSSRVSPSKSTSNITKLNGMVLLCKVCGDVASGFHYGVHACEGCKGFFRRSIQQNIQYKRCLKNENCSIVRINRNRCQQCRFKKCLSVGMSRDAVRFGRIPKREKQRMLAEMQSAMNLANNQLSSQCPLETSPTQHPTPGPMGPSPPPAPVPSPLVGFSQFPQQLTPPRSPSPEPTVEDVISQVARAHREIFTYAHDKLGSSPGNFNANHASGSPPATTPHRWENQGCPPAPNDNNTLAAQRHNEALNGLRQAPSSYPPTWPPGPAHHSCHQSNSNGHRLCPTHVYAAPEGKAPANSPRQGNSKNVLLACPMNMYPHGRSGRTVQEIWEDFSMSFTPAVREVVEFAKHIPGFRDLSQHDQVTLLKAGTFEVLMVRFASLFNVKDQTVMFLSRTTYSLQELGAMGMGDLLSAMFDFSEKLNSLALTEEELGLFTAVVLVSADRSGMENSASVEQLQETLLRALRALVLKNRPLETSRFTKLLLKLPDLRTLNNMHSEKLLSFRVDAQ
Description: (§1) HEK293T cells were defrosted and maintained in DMEM supplemented with 10% FCS and 1% P/S at 37° C. and 5% CO2. Cells were plated in a 24-well plate (7·10^4 cells/well in 0.5 mL of DMEM+10% FCS). 24 h after seeding, cells were transfected with 100 ng of Bmal-luc, 10 ng of pRL-CMV Renilla as an internal control and 10 ng of REV-ERBα or the empty vector pcDNA3 as a control. All conditions were equalled to a total of 400 ng of DNA by using BSM. In order to prepare transfection samples, calculated amounts of DNA needed for each condition were prepared in Opti-MEM and Fugene was added in a 5:2 Fugene:DNA ratio. Mixtures were vortexed to assure homogeneity and left to incubate for 15 min at rt. Afterwards, each DNA mix was transferred into the 24-well plate containing the pre-seeded cells, with each condition repeated by triplicate. 5 h after transfection, cells were treated with compounds 2-12, AG1-AG5 or DMSO as vehicle. Solution of the compounds in DMEM were prepared at a double concentration than the final desired one, and 0.5 mL of these solutions were added to each well. 24 h after transfection, cells were lysed and luciferase activity was measured using Dual-Luciferase Reporter Assay System E2920 (Promega). To perform the experiment, cells were lysed by adding 50 μL of passive lysis buffer (PLB) (1:5 dilution) to each well and gently stirring for 30 min. Each cell lysate was transferred to a 96-well plate. 50 μL of Dual-Glo reagent were dispensed into each well, tapped gently to mix and incubated for 10 min. Luminescence of firefly luciferase was measured using a Tecan VICTOR Light Luminescent counter equipment. Then, 50 μL of Stop&Glo reagent were dispensed to quench firefly activity and activate Renilla luciferase, incubated for 10 min and measured. Firefly activity was normalized to Renilla luciferase activity. Results were analysed using Welch's corrected parametric t-test.
(§2) The method of Example 2 was repeated using Compounds 70 to 72 (generated as described in Example 1). Compounds 4, 7 and 11 (tested in Example 2) were used as a positive control for REV-ERB inhibitory activity, agonist compound AG2 (also tested in Example 2) and DMSO were also tested as comparators.
The method of Example 2 was repeated using Compounds 64 to 66, 69 and 70 to 73 (generated as described in Example 1). Once again, Compounds 4, 7 and 11 (tested in Example 2) were used as a positive control for REV-ERB inhibitory activity, agonist compound AG2 (also tested in Example 2) and DMSO were also tested as comparators.
as §2, with “16” for “70”, “19, 27, 28 and 44” for “72”, “1). Once again,” for “1).”

[2] = molecular target: T2, REV-ERBβ (Homo sapiens, UniProt Q14995); test: Dual-luciferase Bmal-luc reporter assay in HEK293T cells transfected with REV-ERBβ; format: cell-based; details: 10 μM
T2 construct: expressed in transfected cells; host or cells: HEK293T
T2 sequence (Q14995 1-579): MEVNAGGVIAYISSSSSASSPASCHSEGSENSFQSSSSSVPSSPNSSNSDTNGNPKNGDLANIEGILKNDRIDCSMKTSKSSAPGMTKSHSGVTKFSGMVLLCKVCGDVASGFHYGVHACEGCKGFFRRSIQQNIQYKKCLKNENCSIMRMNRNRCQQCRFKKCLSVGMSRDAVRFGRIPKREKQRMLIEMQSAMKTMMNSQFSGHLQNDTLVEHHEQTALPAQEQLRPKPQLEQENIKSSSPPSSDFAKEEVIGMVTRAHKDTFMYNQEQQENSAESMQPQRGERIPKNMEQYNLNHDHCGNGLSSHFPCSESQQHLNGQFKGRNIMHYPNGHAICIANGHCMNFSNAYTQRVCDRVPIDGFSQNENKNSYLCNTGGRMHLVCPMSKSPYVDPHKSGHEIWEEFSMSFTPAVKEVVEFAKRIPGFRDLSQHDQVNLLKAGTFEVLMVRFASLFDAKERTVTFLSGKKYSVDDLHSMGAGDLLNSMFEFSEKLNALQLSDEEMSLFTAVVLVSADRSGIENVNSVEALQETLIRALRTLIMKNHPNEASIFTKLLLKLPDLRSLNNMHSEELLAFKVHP
Description: as §1
The method of Example 2 was repeated but with 10 ng of REV-ERBβ used in place of REV-ERBa. Compounds 4, 66, 69 and 73 were tested (generated as described in Example 1). Agonist compound AG2 and DMSO were also tested as comparators.
The method of Example 5 was repeated using Compounds 18 and 19 (generated as described in Example 1). Agonist compound AG5 and DMSO were also tested as comparators.

[3] = test system: E4bp4; details: previously shown by the inventors; cited from earlier work
[4] = test system: NK cells; details: previously shown by the inventors; cited from earlier work
[5] = FIG. 3, three independent experiments in triplicate, comparison with SR8278
[6] = FIG. 4, two independent experiments in triplicate, comparison with SR8278
[7] = FIG. 6, three independent experiments in triplicate
[8] = FIG. 8, two independent experiments in triplicate

| Compound | Effect on REV-ERBα activity (Bmal-luc luciferase expression) [1, 6] | Effect on REV-ERBβ activity (Bmal-luc luciferase expression) [2, 7] | Effect on REV-ERBβ activity (Bmal-luc luciferase expression) [2, 8] | Effect on REV-ERBα activity (Bmal-luc luciferase expression) [1, 5] | further results |
| --- | --- | --- | --- | --- | --- |
| CCOC(=O)C1Cc2ccccc2CN1C(=O)OCC (racemic) [Compound 4, Diethyl 3,4-dihydroisoquinoline-2,3(1H)-dicarboxylate] | significant antagonistic activity | significant antagonistic activity | – | significant increase in luciferase expression compared with SR8278; also recorded: significant antagonistic activity | Effect on REV-ERBα activity (Bmal-luc luciferase expression) ([1]; FIG. 7, three independent experiments in triplicate): significant antagonistic activity |
| CCOC(=O)C1Cc2ccccc2CN1S(=O)(=O)c1cccc2ccccc12 (stereo not shown) [AG2] | agonist | agonist | agonist | agonists | Effect on REV-ERBα activity (Bmal-luc luciferase expression) ([1]; FIG. 5, three independent experiments in triplicate): agonist |
| CCOC(=O)C1Cc2ccccc2CN1C(=O)c1ccc(SC)s1 (stereo not shown) [SR8278] | – | – | – | – | E4bp4 expression [3]: increases E4bp4 expression; NK cell production [4]: increases NK cell production |

The next lines start with results.

| Effect on REV-ERBα activity (Bmal-luc luciferase expression) [1, 6] | Effect on REV-ERBβ activity (Bmal-luc luciferase expression) [2, 7] | Effect on REV-ERBβ activity (Bmal-luc luciferase expression) [2, 8] | Compound | Effect on REV-ERBα activity (Bmal-luc luciferase expression) [1, 5] | further results |
| --- | --- | --- | --- | --- | --- |
| – | – | antagonistic activity | CCOC(=O)C1Cc2ccccc2CN1C(=O)c1ccnn1C (racemic) [Compound 18] | – | – |
| – | – | antagonistic activity | CCOC(=O)C1Cc2ccccc2CN1C(=O)c1ccn(C)n1 (racemic) [Compound 19] | – | – |
